Data: US20260001928A1 (CORTERIA PHARMACEUTICALS, priority 2022, published 2026)
*1 amine or outer side, *2 acyl side, *3 side chain or, on linkers, in order; H or OH if unused. Where a SMILES comes first, the peptide text is derived from it. Side-chain parts run from the residue outwards. [ ]: non-standard residue; d: D form. The star is where a group is joined. C20 diacid = O=C(O)CCCCCCCCCCCCCCCCCCC(=O)*; C18 diacid = O=C(O)CCCCCCCCCCCCCCCCC(=O)*; γGlu = O=C(O)[C@H](CCC(=O)[*:2])N[*:1]; NMeI = CC[C@H](C)[C@H](NC)C(=O)O; αMeL = CC(C)C[C@](C)(N)C(=O)O; AEEA = NCCOCCOCC(=O)O; Aib = CC(C)(N)C(=O)O

Assays:
[1] = In vitro plasma stability, rat plasma; format: in vitro ADME; set-up: remaining at 2 h: dose or concentration left out as unconfirmed; conditions: Rat PLM, 37° C.
Method: In vitro plasma metabolic stability was studied in male Sprague Dawley rats and human. Test compounds were incubated at 3 M for 2 hours at 37° C. At each time point (0, 0.25, 1 and 2 h), samples were prepared for analysis by means of a single step protein precipitation technique by adding 150 μL of ethanol, 0.1% formic acid to 50 μL aliquots of plasma. Samples were mixed by vortex for homogeneity and then subjected to centrifugation at 14000 rpm for 15 min. The supernatant (100 μL) was collected, diluted with 100 μL of water, 0.1% formic acid and analyzed by LC-HRMS (TripleTOF 6600+, AB Sciex). For each test compound, the area ratios at each time point were compared to the 0 h area ratio and converted to a percentage remaining.

[2] = Chemical stability in buffer (pH 7.4 / pH 4.5), % purity loss; format: physicochemical; conditions: 40° C. vs 5° C., 14 or 28 days; for Buffer stability pH 7.4 % purity loss: 100 mM phosphate buffer pH 7.4; for Buffer stability pH 4.5 % purity loss: 100 mM acetate buffer pH 4.5
How it was run: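 LC-UV gave % loss after 14 or 28 days of storage at 5 °C or 40 °C. Samples were diluted supernatants from compound incubated 1 h at room temperature at 10 mg/mL target, in 100 mM acetate pH 4.5 or 100 mM phosphate pH 7.4.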

[3] = Pharmacokinetics in male Sprague Dawley rats after subcutaneous administration; format: in vivo; conditions: plasma, rat
Sprague Dawley rats = assay: Effect on systolic blood pressure, telemetry in Sprague Dawley rats; format: in vivo, rat; conditions: 0.1 mg/kg SC; for Systolic blood pressure (Mean) % change from baseline, 8 h / Systolic blood pressure (Mean) % change from baseline, 12 h / Systolic blood pressure (Mean) % change from baseline, 24 h: n=2; for Duration of action: last time point with an effect on BP still observed
How it was run: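 Values are % change from a 1 h pre-dose baseline in systolic pressure, tracked by telemetry for up to 48 hours after a single 0.1 mg/kg subcutaneous dose. Rats (Sprague Dawley, n=2 per peptide) carried aortic catheters and recovered at least 10 days post-surgery; duration of action marks the last time point still showing an effect.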

[4] = In vitro plasma stability, minipig plasma; format: in vitro ADME; set-up: remaining at 2 h: dose or concentration left out as unconfirmed; conditions: Minipig PLM, 37° C.
rat CRF2 a = biological target: T1, rat CRF2 a (Rattus norvegicus, UniProt P47866); assay: Activity at rat CRF2 a, cAMP assay in A7R5 rat aortic smooth muscle cells; format: cell-based; conditions: 0% HSA, 100% = Sauvagine at 100 nM
T1 construct: host or cells: A7R5 rat aortic smooth muscle cells
How it was run: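 cAMP response measured in frozen-stock A7R5 rat aortic smooth muscle cells, 5000 cells/well final. 100% activation defined by Sauvagine at 100 nM in control wells.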

T1 sequence (P47866 27-431 isoform P47866-2 limits assumed): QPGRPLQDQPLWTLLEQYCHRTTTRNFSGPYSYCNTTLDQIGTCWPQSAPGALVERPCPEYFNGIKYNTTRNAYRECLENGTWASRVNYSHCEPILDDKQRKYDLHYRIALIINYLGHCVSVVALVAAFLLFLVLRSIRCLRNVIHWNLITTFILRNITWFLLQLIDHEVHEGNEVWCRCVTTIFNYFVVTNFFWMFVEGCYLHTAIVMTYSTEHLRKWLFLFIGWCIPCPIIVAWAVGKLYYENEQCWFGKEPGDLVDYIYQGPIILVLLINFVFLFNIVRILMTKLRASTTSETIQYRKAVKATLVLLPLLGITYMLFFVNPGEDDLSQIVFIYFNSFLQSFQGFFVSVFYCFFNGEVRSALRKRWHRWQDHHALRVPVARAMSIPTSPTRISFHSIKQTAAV

SMILES: CC[C@H](C)[C@H](NC(C)=O)C(=O)N[C@H](C(=O)N[C@@H](CC(C)C)C(=O)N[C@@H](CO)C(=O)N[C@@H](CC(C)C)C(=O)N[C@@H](CC(=O)O)C(=O)N[C@@H](C(=O)N1CCC[C@H]1C(=O)N[C@H](C(=O)N[C@@H](CCCCN)C(=O)N[C@@](C)(CC(C)C)C(=O)N[C@@H](CCCCNC(=O)COCCOCCNC(=O)COCCOCCNC(=O)CC[C@H](NC(=O)CCCCCCCCCCCCCCCCC(=O)O)C(=O)O)C(=O)N[C@@H](CCCCN)C(=O)N[C@H](C(=O)N[C@@H](CC(C)C)C(=O)N[C@@H](CC(C)C)C(=O)N[C@@H](CCC(=O)O)C(=O)N[C@@H](CCC(N)=O)C(=O)N[C@@H](CCC(=O)O)C(=O)N[C@@H](CCCCN)C(=O)N[C@@H](CCC(N)=O)C(=O)N[C@@H](CCCCN)C(=O)N[C@@H](CCCCN)C(=O)N[C@@H](CCC(N)=O)C(=O)N[C@@H](CCCNC(=N)N)C(=O)N[C@@H](CCC(=O)O)C(=O)N[C@@H](CCC(N)=O)C(=O)N[C@@H](C)C(=O)N[C@@H](CCC(=O)O)C(=O)N[C@H](C(=O)N[C@@H](CC(N)=O)C(=O)NC(C)(C)C(=O)N[C@@H](CCC(N)=O)C(=O)N[C@H](C(=O)N[C@@H](CC(C)C)C(=O)N[C@@H](C)C(=O)N[C@@H](CCC(N)=O)C(=O)N[C@H](C(N)=O)C(C)C)[C@@H](C)CC)[C@@H](C)O)[C@@H](C)CC)[C@@H](C)CC)C(C)C)C(C)C [compound 110] (Ac-IVLSLD[dV]PIK[αMeL]K([AEEA-AEEA-γGlu-C18 diacid])KILLEQEKQKKQREQAETN[Aib]QILAQV-NH2)
- remaining at 2 h ([1]; male, Sprague Dawley, plasma): 95%
- Buffer stability pH 7.4 % purity loss [2]: 0/nd ^ %
- AUC(0-t) ([3]; IV, 0.05 mg/kg): 3880 ng·h/mL
- half-life ([3]; IV, 0.05 mg/kg): 4.8 h
- Tmax ([3]; SC, 0.1 mg/kg): 5 h
- half-life ([3]; SC, 0.1 mg/kg): 5 h
- Systolic blood pressure (Mean) % change from baseline, 8 h (Sprague Dawley rats): −19%
- Systolic blood pressure (Mean) % change from baseline, 12 h (Sprague Dawley rats): −10%
- Systolic blood pressure (Mean) % change from baseline, 24 h (Sprague Dawley rats): −6%
- Duration of action (Sprague Dawley rats): 20 h
- remaining at 2 h ([4]; pig, plasma): 106%

SMILES: CC[C@H](C)[C@H](NC)C(=O)N[C@H](C(=O)N[C@@H](CC(C)C)C(=O)N[C@@H](CO)C(=O)N[C@@H](CC(C)C)C(=O)N[C@@H](CC(=O)O)C(=O)N[C@@H](C(=O)N1CCC[C@H]1C(=O)N[C@H](C(=O)N[C@@H](CCCCN)C(=O)N[C@@H](CC(C)C)C(=O)N[C@@H](CCCCNC(=O)COCCOCCNC(=O)COCCOCCNC(=O)CC[C@H](NC(=O)CCCCCCCCCCCCCCCCC(=O)O)C(=O)O)C(=O)N[C@@H](CCCCN)C(=O)N[C@H](C(=O)N[C@@H](CC(C)C)C(=O)N[C@@H](CC(C)C)C(=O)N[C@@H](CCC(=O)O)C(=O)N[C@@H](CCC(N)=O)C(=O)N[C@@H](CCC(=O)O)C(=O)N[C@@H](CCCCN)C(=O)N[C@@H](CCC(N)=O)C(=O)N[C@@H](CCCCN)C(=O)N[C@@H](CCCCN)C(=O)N[C@@H](CCC(N)=O)C(=O)N[C@@H](CCCNC(=N)N)C(=O)N[C@@H](CCC(=O)O)C(=O)N[C@@H](CCC(N)=O)C(=O)N[C@@H](C)C(=O)N[C@@H](CCC(=O)O)C(=O)N[C@H](C(=O)N[C@@H](CC(N)=O)C(=O)NC(C)(C)C(=O)N[C@@H](CCC(N)=O)C(=O)N[C@H](C(=O)N[C@@H](CC(C)C)C(=O)N[C@@H](C)C(=O)N[C@@H](CCC(N)=O)C(=O)N[C@H](C(N)=O)C(C)C)[C@@H](C)CC)[C@@H](C)O)[C@@H](C)CC)[C@@H](C)CC)C(C)C)C(C)C [compound 118] (H-[NMeI]VLSLD[dV]PIKLK([AEEA-AEEA-γGlu-C18 diacid])KILLEQEKQKKQREQAETN[Aib]QILAQV-NH2)
- % remaining at 2 hours [1]: 128%
- Buffer stability pH 4.5 % purity loss [2]: 0/0 ^ %
- Buffer stability pH 7.4 % purity loss [2]: 0/0 ^ %
- AUC(0-t) ([3]; IV, 0.05 mg/kg): 3900 ng·h/mL
- half-life ([3]; IV, 0.05 mg/kg): 5.2 h
- Tmax ([3]; SC, 0.1 mg/kg): 8 h
- half-life ([3]; SC, 0.1 mg/kg): 5.2 h
- Systolic blood pressure (Mean) % change from baseline, 8 h (Sprague Dawley rats): −24%
- Systolic blood pressure (Mean) % change from baseline, 12 h (Sprague Dawley rats): −17%
- Systolic blood pressure (Mean) % change from baseline, 24 h (Sprague Dawley rats): −4%
- Duration of action (Sprague Dawley rats): >24 h
- % remaining at 2 hours [4]: 126%

SMILES: CC[C@H](C)[C@H](NC)C(=O)N[C@H](C(=O)N[C@@H](CC(C)C)C(=O)N[C@@H](CO)C(=O)N[C@@H](CC(C)C)C(=O)N[C@@H](CC(=O)O)C(=O)N[C@@H](C(=O)N1CCC[C@H]1C(=O)N[C@H](C(=O)N[C@@H](CCCCN)C(=O)N[C@@H](CC(C)C)C(=O)N[C@@H](CCCCNC(=O)CC[C@H](NC(=O)CCCCCCCCCCCCCCCCCCC(=O)O)C(=O)O)C(=O)N[C@@H](CCCCN)C(=O)N[C@H](C(=O)N[C@@H](CC(C)C)C(=O)N[C@@H](CC(C)C)C(=O)N[C@@H](CCC(=O)O)C(=O)N[C@@H](CCC(N)=O)C(=O)N[C@@H](CCC(=O)O)C(=O)N[C@@H](CCCCN)C(=O)N[C@@H](CCC(N)=O)C(=O)N[C@@H](CCCCN)C(=O)NC(C)(C)C(=O)N[C@@H](CCC(N)=O)C(=O)N[C@@H](CCCNC(=N)N)C(=O)N[C@@H](CCC(=O)O)C(=O)N[C@@H](CCC(N)=O)C(=O)N[C@@H](C)C(=O)N[C@@H](CCC(=O)O)C(=O)N[C@H](C(=O)N[C@@H](CC(N)=O)C(=O)NC(C)(C)C(=O)N[C@@H](CCC(N)=O)C(=O)N[C@H](C(=O)N[C@@H](CC(C)C)C(=O)N[C@@H](C)C(=O)N[C@@H](CCC(N)=O)C(=O)N[C@H](C(N)=O)C(C)C)[C@@H](C)CC)[C@@H](C)O)[C@@H](C)CC)[C@@H](C)CC)C(C)C)C(C)C [compound 215] (H-[NMeI]VLSLD[dV]PIKLK([γGlu-C20 diacid])KILLEQEKQK[Aib]QREQAETN[Aib]QILAQV-NH2)
- Buffer stability pH 7.4 % purity loss [2]: 0.0/Not Tested %
- AUC(0-t) ([3]; IV, 0.05 mg/kg): 7320 ng·h/mL
- half-life ([3]; IV, 0.05 mg/kg): 8 h
- Tmax ([3]; SC, 0.1 mg/kg): 7 h
- half-life ([3]; SC, 0.1 mg/kg): 10 h
- Systolic blood pressure (Mean) % change from baseline, 8 h (Sprague Dawley rats): −12%
- Systolic blood pressure (Mean) % change from baseline, 12 h (Sprague Dawley rats): −14%
- Systolic blood pressure (Mean) % change from baseline, 24 h (Sprague Dawley rats): −16%
- Duration of action (Sprague Dawley rats): >24 h

SMILES: CC[C@H](C)[C@H](NC(C)=O)C(=O)N[C@H](C(=O)N[C@@H](CC(C)C)C(=O)N[C@@H](CO)C(=O)N[C@@H](CC(C)C)C(=O)N[C@@H](CC(=O)O)C(=O)N[C@@H](C(=O)N1CCC[C@H]1C(=O)N[C@H](C(=O)N[C@@H](CCCCN)C(=O)N[C@@H](CC(C)C)C(=O)N[C@@H](CCCCNC(=O)CC[C@H](NC(=O)CCCCCCCCCCCCCCCCCCC(=O)O)C(=O)O)C(=O)N[C@@H](CCCCN)C(=O)N[C@H](C(=O)N[C@@H](CC(C)C)C(=O)N[C@@H](CC(C)C)C(=O)N[C@@H](CCC(=O)O)C(=O)N[C@@H](CCC(N)=O)C(=O)N[C@@H](CCC(=O)O)C(=O)N[C@@H](CCCCN)C(=O)N[C@@H](CCC(N)=O)C(=O)N[C@@H](CCCCN)C(=O)N[C@@H](CCCCN)C(=O)N[C@@H](CCC(N)=O)C(=O)N[C@@H](CCCNC(=N)N)C(=O)N[C@@H](CCC(=O)O)C(=O)N[C@@H](CCC(N)=O)C(=O)N[C@@H](C)C(=O)N[C@@H](CCC(=O)O)C(=O)N[C@H](C(=O)N[C@@H](CC(N)=O)C(=O)NC(C)(C)C(=O)N[C@@H](CCC(N)=O)C(=O)N[C@H](C(=O)N[C@@H](CC(C)C)C(=O)N[C@@H](C)C(=O)N[C@@H](CCC(N)=O)C(=O)N[C@H](C(N)=O)C(C)C)[C@@H](C)CC)[C@@H](C)O)[C@@H](C)CC)[C@@H](C)CC)C(C)C)C(C)C [compound 206] (Ac-IVLSLD[dV]PIKLK([γGlu-C20 diacid])KILLEQEKQKKQREQAETN[Aib]QILAQV-NH2)
- EC50 (rat CRF2 a): 0.06 nM
- Buffer stability pH 4.5 % purity loss [2]: 0.0/0.0 ^ %
- Buffer stability pH 7.4 % purity loss [2]: 0.0/0.0 ^ %
- AUC(0-t) ([3]; IV, 0.05 mg/kg): 8100 ng·h/mL
- half-life ([3]; IV, 0.05 mg/kg): 8 h
- Tmax ([3]; SC, 0.1 mg/kg): 8 h
- half-life ([3]; SC, 0.1 mg/kg): 8 h
- Systolic blood pressure (Mean) % change from baseline, 8 h (Sprague Dawley rats): −12%
- Systolic blood pressure (Mean) % change from baseline, 12 h (Sprague Dawley rats): −16%
- Systolic blood pressure (Mean) % change from baseline, 24 h (Sprague Dawley rats): −13%
- Duration of action (Sprague Dawley rats): >24 h
